Measured values: patent US20230330122A1, “PHARMACOLOGICAL TREATMENT OF AUTISM SPECTRUM DISORDER” (priority 2022, published 2023)

What was measured:
[1] = test system: SHANK3 autism mouse model; test: Compulsive behavior in SHANK3 autism mouse model; type: in vivo
From the text: FIGS. 5 and 6 present data collected by experiments using a SH3 And Multiple Ankyrin Repeat Domains 3 (SHANK3) autism mouse model. SHANK3 was the first to be associated with autism which was used by Joao Peca et al. (2011) to create the mouse model currently in use. […] The SHANK family of proteins has been strongly implicated as a contributing factor in autism in certain individuals and sits at the core of the alleged autistic pathway. The SHANK proteins lie at the heart of this synaptic map of autistic pathology, binding to Metabotropic Glutamate Receptors (mGluRs) indirectly, via the Homer family of adaptor proteins, and to both N-methyl-D-aspartate receptors (NMDARS) and Neuroligins (NLGNs) indirectly, via guanylate kinase-associated protein (GKAP) and Postsynaptic density protein 95 (PSD-95). They also link to the actin cytoskeleton, providing a multivalent scaffold upon which to build the postsynaptic density.
Compulsive behavior was used as a readout to evaluate the effectiveness of autistic symptom amelioration through NMN treatment. […] A baseline was recorded for both groups. The effect of a placebo was evaluated for both groups. NMN was administered to subjects of each group and the results were recorded. The results of treatment with NMN over 1 week were also recorded.

OCD mouse models = settings: 3 different mouse models; cited from earlier work

Row | SMILES | compulsive behavior in seconds observed over a 5-minute period ([1]; SHANK3 autistic group and control group, NMN administered, also NMN over 1 week, FIG. 5) | safety of treatment ([1]; SHANK3 mouse model, NMN treatment) | treating OCD (OCD mouse models)
1 | NC(=O)c1ccc[n+]([C@@H]2O[C@H](COP(=O)([O-])O)[C@@H](O)[C@H]2O)c1 [NMN, nicotinamide mononucleotide] | significantly reducing the exhibition of compulsive behavior | SAFE | –
2 | O=C(O)C(Cc1c[nH]c2ccccc12)N1C(=O)c2ccccc2C1=O (stereo not drawn) [RG108] | – | – | successful in treating OCD
